Results published in patent US11053204B2, “Pyrimidinyloxy benzene derivatives as herbicides” (FMC Corporation, priority 2015, dated 2021).

Columns and labels:
Format in all cases: in vivo
[1] = tested on: ducksalad (Heteranthera limosa); experiment: Test B flooded paddy test, plant response rating; conditions: 250 g ai/ha; Flood; scale of 0 to 100 where 0 is no effect and 100 is complete control; 13 to 15 days
Outline: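 Visual injury ratings against untreated controls, taken 13 to 15 days after compound was added to paddy water standing 3 cm above the soil.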

[2] = tested on: pigweed (Amaranthus retroflexus); experiment: Test A preemergence, visual injury rating
Outline: (§1)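 Scoring: eye-based comparison with untreated controls, 0 for no effect through 100 for complete control, at about day 10. Treatments: directed soil spray preemergence; foliar spray postemergence on 2–10 cm plants at the one- to two-leaf stage. Medium: loam soil with sand.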

[3] = tested on: Italian ryegrass (Lolium multiflorum); experiment: Test A preemergence, visual injury rating
Outline: as §1

[4] = tested on: barnyardgrass (Echinochloa crus-galli); experiment: Test A preemergence, visual injury rating
Outline: as §1

[5] = tested on: ragweed (common ragweed, Ambrosia elatior); experiment: Test A preemergence, visual injury rating
Outline: as §1

kochia (Kochia scoparia) [6] = experiment: Test A preemergence, visual injury rating
Outline: as §1

[7] = tested on: giant foxtail (Setaria faberii); experiment: Test A preemergence, visual injury rating
Outline: as §1

[8] = tested on: morningglory (Ipomoea coccinea); experiment: Test C postemergence, plant response rating; conditions: for Morningglory plant response rating: scale 0 to 100 (0 no effect, 100 complete control)
Outline: (§2)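 Pre-emergence: seeds sown in loam soil–sand blend or silt loam and sprayed with test chemicals in a non-phytotoxic solvent mixture with surfactant. Post-emergence: plants 2 to 18 cm (1- to 4-leaf stage) in peat-based potting medium, same formulation. Greenhouse 13 to 15 d; visual rating 0 (no effect) to 100 (complete control) versus controls.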

[9] = tested on: velvetleaf (Abutilon theophrasti); experiment: Test C postemergence, plant response rating
Outline: as §2

[10] = tested on: nutsedge, yellow (yellow nutsedge, Cyperus esculentus); experiment: Test C postemergence, plant response rating; conditions: for Nutsedge, Yellow plant response rating: scale 0 to 100 (0 no effect, 100 complete control)
Outline: as §2

[11] = tested on: oat, wild (wild oat Avena fatua); experiment: Test C postemergence, plant response rating; conditions: for Oat, Wild plant response rating: scale 0 to 100 (0 no effect, 100 complete control)
Outline: as §2

[12] = tested on: crabgrass, large (large crabgrass, Digitaria sanguinalis); experiment: Test C postemergence, plant response rating; conditions: for Crabgrass, Large plant response rating: scale 0 to 100 (0 no effect, 100 complete control)
Outline: as §2

[13] = tested on: barnyardgrass (Echinochloa crus-galli); experiment: Test C postemergence, plant response rating; conditions: for Plant response rating, Barnyardgrass: scale 0 to 100; for Barnyardgrass plant response rating: scale 0 to 100 (0 no effect, 100 complete control)
Outline: as §2

[14] = tested on: ragweed (common ragweed, Ambrosia elatior); experiment: Test C postemergence, plant response rating; conditions: for Ragweed plant response rating: scale 0 to 100 (0 no effect, 100 complete control)
Outline: as §2

[15] = tested on: lambsquarters (Chenopodium album); experiment: Test C postemergence, plant response rating; conditions: for Lambsquarters plant response rating: scale 0 to 100 (0 no effect, 100 complete control)
Outline: as §2

kochia (Kochia scoparia) [16] = experiment: Test C postemergence, plant response rating; conditions: for Kochia plant response rating: scale 0 to 100 (0 no effect, 100 complete control)
Outline: as §2

corn (Zea mays) = experiment: Test C postemergence, plant response rating; conditions: for Corn plant response rating: scale 0 to 100 (0 no effect, 100 complete control)
Outline: as §2

[17] = 31 g ai/ha, 0 to 100 scale, 0 no effect, 100 complete control
[18] = 125 g ai/ha, 0 to 100 scale (0 no effect, 100 complete control)

`O=C(CCCCC(F)(F)F)c1c(Br)cccc1Oc1ncc(Cl)cn1` [Compound 82] was tested. Which “Plant response rating, Ducksalad” value [1] did it give?
The value was 100.

What about the “Plant response rating, Pigweed” value [2, 17] of the same compound?
Its value is 90.

What about the “Pigweed plant response rating” value [2, 18] of the same compound?
The value was 100.

What about the “Plant response rating, Ryegrass, Italian” value [3, 17] of the same compound?
The value was 0.

And the “Ryegrass, Italian plant response rating” value [3, 18]?
The value was 80.

And the “Plant response rating, Barnyardgrass” value [4, 17]?
The value was 50.

What about the “Barnyardgrass plant response rating” value [4, 18] of the same compound?
Its value is 100.

And the “Plant response rating, Ragweed” value [5, 17]?
The value was 0.

And the “Ragweed plant response rating” value [5, 18]?
The value was 60.

What about the “Plant response rating, Kochia” value (kochia (Kochia scoparia) [6]; [17]) of the same compound?
Its value is 70.

What about the “Kochia plant response rating” value (kochia (Kochia scoparia) [6]; [18]) of the same compound?
The value was 80.

What about the “Plant response rating, Foxtail, Giant” value [7, 17] of the same compound?
The value was 90.

What about the “Foxtail, Giant plant response rating” value [7, 18] of the same compound?
Its value is 100.

What about the “Plant response rating, Morningglory” value ([8]; 16 g ai/ha, scale of 0 to 100) of the same compound?
Its value is 25.

What about the “Plant response rating, Morningglory” value ([8]; 31 g ai/ha, scale 0 to 100) of the same compound?
The value was 40.

And the “Morningglory plant response rating” value ([8]; 62 g ai/ha)?
The value was 30.

And the “Morningglory plant response rating” value ([8]; 125 g ai/ha)?
Its value is 75.

And the “Plant response rating, Velvetleaf” value ([9]; 16 g ai/ha, scale of 0 to 100)?
The value was 35.

What about the “Plant response rating, Velvetleaf” value ([9]; 31 g ai/ha, scale 0 to 100) of the same compound?
Its value is 45.

And the “Velvetleaf plant response rating” value ([9]; 125 g ai/ha, scale 0 to 100 (0 no effect, 100 complete control))?
The value was 75.

What about the “Plant response rating, Nutsedge, Yellow” value ([10]; 16 g ai/ha, scale of 0 to 100) of the same compound?
The value was 10.

And the “Plant response rating, Nutsedge, Yellow” value ([10]; 31 g ai/ha, scale 0 to 100)?
The value was 10.

And the “Nutsedge, Yellow plant response rating” value ([10]; 62 g ai/ha)?
The value was 20.

What about the “Nutsedge, Yellow plant response rating” value ([10]; 125 g ai/ha) of the same compound?
Its value is 10.

What about the “Plant response rating, Oat, Wild” value ([11]; 16 g ai/ha, scale of 0 to 100) of the same compound?
Its value is 25.

What about the “Plant response rating, Oat, Wild” value ([11]; 31 g ai/ha, scale 0 to 100) of the same compound?
The value was 40.

And the “Oat, Wild plant response rating” value ([11]; 62 g ai/ha)?
Its value is 40.

What about the “Oat, Wild plant response rating” value ([11]; 125 g ai/ha) of the same compound?
The value was 50.

And the “Plant response rating, Crabgrass, Large” value ([12]; 16 g ai/ha, scale of 0 to 100)?
Its value is 10.

And the “Plant response rating, Crabgrass, Large” value ([12]; 31 g ai/ha, scale 0 to 100)?
The value was 30.

What about the “Crabgrass, Large plant response rating” value ([12]; 62 g ai/ha) of the same compound?
Its value is 30.

And the “Crabgrass, Large plant response rating” value ([12]; 125 g ai/ha)?
The value was 20.

And the “Plant response rating, Barnyardgrass” value ([13]; 16 g ai/ha)?
The value was 10.

What about the “Plant response rating, Barnyardgrass” value ([13]; 31 g ai/ha) of the same compound?
The value was 10.

What about the “Barnyardgrass plant response rating” value ([13]; 62 g ai/ha) of the same compound?
The value was 10.

What about the “Barnyardgrass plant response rating” value ([13]; 125 g ai/ha) of the same compound?
The value was 60.

What about the “Plant response rating, Ragweed” value ([14]; 16 g ai/ha, scale of 0 to 100) of the same compound?
Its value is 40.

And the “Plant response rating, Ragweed” value ([14]; 31 g ai/ha, scale 0 to 100)?
The value was 35.

And the “Ragweed plant response rating” value ([14]; 62 g ai/ha)?
Its value is 60.

What about the “Ragweed plant response rating” value ([14]; 125 g ai/ha) of the same compound?
Its value is 55.

What about the “Plant response rating, Lambsquarters” value ([15]; 16 g ai/ha, scale of 0 to 100) of the same compound?
Its value is 70.

What about the “Plant response rating, Lambsquarters” value ([15]; 31 g ai/ha, scale 0 to 100) of the same compound?
The value was 75.

And the “Lambsquarters plant response rating” value ([15]; 62 g ai/ha)?
The value was 85.

And the “Lambsquarters plant response rating” value ([15]; 125 g ai/ha)?
Its value is 90.

And the “Plant response rating, Kochia” value (kochia (Kochia scoparia) [16]; 16 g ai/ha, scale of 0 to 100)?
Its value is 80.

And the “Plant response rating, Kochia” value (kochia (Kochia scoparia) [16]; 31 g ai/ha, scale 0 to 100)?
Its value is 95.

What about the “Kochia plant response rating” value (kochia (Kochia scoparia) [16]; 62 g ai/ha) of the same compound?
Its value is 95.

What about the “Kochia plant response rating” value (kochia (Kochia scoparia) [16]; 125 g ai/ha) of the same compound?
Its value is 95.

What about the “Plant response rating, Corn” value (corn (Zea mays); 16 g ai/ha, scale of 0 to 100) of the same compound?
Its value is 20.

What about the “Plant response rating, Corn” value (corn (Zea mays); 31 g ai/ha, scale 0 to 100) of the same compound?
The value was 20.

What about the “Corn plant response rating” value (corn (Zea mays); 62 g ai/ha) of the same compound?
The value was 25.

What about the “Corn plant response rating” value (corn (Zea mays); 125 g ai/ha) of the same compound?
The value was 25.
